Measured values published in ChEMBL document CHEMBL1201862, “PubChem BioAssay data set” (2004).
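Growth conditions: 96-well plates. Treatment: test compound, 48 hours, 5 concentrations. Analysis: linear interpolation between bracketing concentrations; unreached endpoints set to highest concentration. GI50 is the concentration that inhibits growth by half.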 The source made the active and inactive calls. Cut-off read from the data, not from the text of the source: active = GI50 up to about 1.1 µM and inactive = higher.

Columns and labels:
Experiment in all cases: NCI tumour cell line growth inhibition, 48 h
MCF7 = test system: MCF7
HT-29 = test system: HT-29
BT-549 = test system: BT-549
MDA-MB-231 = test system: MDA-MB-231
NCI-H522 = test system: NCI-H522
CCRF-CEM = test system: CCRF-CEM
K562 = test system: K562
SK-MEL-28 = test system: SK-MEL-28
CAKI-1 = test system: CAKI-1
HCT-15 = test system: HCT-15
DU-145 = test system: DU-145
NCI-H460 = test system: NCI-H460
HCC 2998 = test system: HCC 2998
NCI/ADR-RES = test system: NCI/ADR-RES
HOP-92 = test system: HOP-92
A549 = test system: A549
HL-60 = test system: HL-60
OVCAR-5 = test system: OVCAR-5
OVCAR-8 = test system: OVCAR-8
SF-539 = test system: SF-539
SK-OV-3 = test system: SK-OV-3
HOP-62 = test system: HOP-62
ACHN = test system: ACHN
IGROV-1 = test system: IGROV-1
786-0 = test system: 786-0
OVCAR-3 = test system: OVCAR-3
T47D = test system: T47D
UO-31 = test system: UO-31
PC-3 = test system: PC-3
Hs-578T = test system: Hs-578T
A498 = test system: A498
MDA-MB-435 = test system: MDA-MB-435
OVCAR-4 = test system: OVCAR-4
M14 = test system: M14
U-251 = test system: U-251
MDA-N = test system: MDA-N
NCI-H226 = test system: NCI-H226
SNB-75 = test system: SNB-75
SF-268 = test system: SF-268
EKVX = test system: EKVX
SW-620 = test system: SW-620
MOLT-4 = test system: MOLT-4
Malme-3M = test system: Malme-3M
LOX IMVI = test system: LOX IMVI
SN12C = test system: SN12C
KM12 = test system: KM12
RPMI-8226 = test system: RPMI-8226
UACC-257 = test system: UACC-257
SK-MEL-5 = test system: SK-MEL-5
SK-MEL-2 = test system: SK-MEL-2
SR = test system: SR
UACC-62 = test system: UACC-62
TK-10 = test system: TK-10
RXF 393 = test system: RXF 393
SNB-19 = test system: SNB-19
HCT-116 = test system: HCT-116
NCI-H23 = test system: NCI-H23
SF-295 = test system: SF-295
COLO 205 = test system: COLO 205
DLD-1 = test system: DLD-1
DMS-273 = test system: DMS-273
LXFL 529 = test system: LXFL 529
KM-20L2 = test system: KM-20L2
M19-MEL = test system: M19-MEL
HOP-18 = test system: HOP-18
DMS-114 = test system: DMS-114

Measured: GI50

CCOC(=O)C(SCCO)C(C(=O)OCC)n1ccc(=O)[nH]c1=O (stereo not drawn)
inactive: MCF7 23.1 µM | HT-29 23.5 µM | BT-549 > 58.7 µM | MDA-MB-231 35.8 µM | NCI-H522 3.77 µM | CCRF-CEM 1.98 µM | K562 5.55 µM | SK-MEL-28 28.8 µM | CAKI-1 7.83 µM | DU-145 > 100 µM | NCI-H460 57.1 µM | HCC 2998 > 71.8 µM | NCI/ADR-RES 25.4 µM | HOP-92 13.8 µM | A549 > 100 µM | HL-60 3.16 µM | OVCAR-5 22.1 µM | OVCAR-8 25.1 µM | SF-539 31.5 µM | SK-OV-3 > 100 µM | HOP-62 > 60.7 µM | ACHN 21.2 µM | IGROV-1 31.9 µM | 786-0 16.6 µM | OVCAR-3 23.3 µM | T47D 38.1 µM | UO-31 > 92 µM | PC-3 > 64 µM | Hs-578T 36.6 µM | A498 75 µM | MDA-MB-435 22.4 µM | OVCAR-4 > 49.3 µM | M14 27.3 µM | U-251 27.6 µM | MDA-N 34.8 µM | NCI-H226 > 35.6 µM | SNB-75 25.4 µM | SF-268 35.4 µM | EKVX 75.9 µM | SW-620 12.9 µM | MOLT-4 3.01 µM | Malme-3M 12.5 µM | LOX IMVI 14.8 µM | SN12C 22.1 µM | KM12 37 µM | RPMI-8226 17.5 µM | UACC-257 > 63.7 µM | SK-MEL-5 63.5 µM | SK-MEL-2 33.7 µM | SR 11.9 µM | UACC-62 20.4 µM | TK-10 > 56.8 µM | RXF 393 24.2 µM | SNB-19 > 100 µM | HCT-116 16.3 µM | NCI-H23 34.3 µM | SF-295 > 100 µM | COLO 205 17.6 µM
17.5 µM: HCT-15

O=C(CC/C(C/C(=N/O)c1ccc(F)cc1)=N/O)N(Cc1ccccc1)Cc1ccccc1
inactive: HT-29 > 100 µM | NCI-H522 > 100 µM | CCRF-CEM > 100 µM | K562 > 100 µM | SK-MEL-28 > 100 µM | CAKI-1 > 100 µM | NCI-H460 > 100 µM | HCC 2998 > 100 µM | HOP-92 > 100 µM | A549 > 100 µM | HL-60 > 100 µM | OVCAR-5 > 100 µM | OVCAR-8 > 100 µM | SF-539 > 100 µM | HOP-62 > 100 µM | ACHN > 100 µM | IGROV-1 > 100 µM | 786-0 > 100 µM | OVCAR-3 > 100 µM | UO-31 > 100 µM | DLD-1 > 100 µM | A498 > 100 µM | DMS-273 > 100 µM | OVCAR-4 > 100 µM | M14 > 100 µM | U-251 > 100 µM | NCI-H226 > 100 µM | SNB-75 > 100 µM | SF-268 > 100 µM | EKVX 58.6 µM | SW-620 > 100 µM | MOLT-4 > 100 µM | Malme-3M > 100 µM | LXFL 529 > 100 µM | KM-20L2 > 100 µM | LOX IMVI > 100 µM | SN12C > 100 µM | KM12 > 100 µM | M19-MEL > 100 µM | RPMI-8226 > 100 µM | UACC-257 > 100 µM | HOP-18 > 100 µM | SK-MEL-5 > 100 µM | SK-MEL-2 > 100 µM | UACC-62 > 100 µM | TK-10 > 100 µM | RXF 393 > 100 µM | SNB-19 > 100 µM | HCT-116 > 100 µM | NCI-H23 > 100 µM | SF-295 > 100 µM | DMS-114 > 100 µM | COLO 205 73.8 µM
> 100 µM: HCT-15
